SMILES | melting point
ON=C1CCc2c1sc1c2CCCC1 | 174 to 176 °C
NCC(=O)c1ncn(Cc2ccccc2)c1N | 156 to 162 °C
CCCn1nc2c(N)nc3ccccc3c2c1CCNC(=O)c1cccnc1 | 219 to 221 °C
Cc1cc2c([N+](=O)[O-])cccc2c(Cl)n1 | 112 °C
O=C(CCN1CCNC1=O)N1CCC(C2c3ncc(Br)cc3CCc3cc(Cl)cc(Br)c32)CC1 (single isomer, unassigned; (+)) | 202 to 203 °C
O=c1oc2c(O)cccc2c(OCCN2CCOCC2)c1-c1ccccc1 | 190 to 191 °C
Cc1nc2nc(S(=O)(=O)Cl)nn2cc1Cl | 99 to 101 °C
COC(=O)c1ccc(Cc2cccc3ccc(CC(C)C(=O)O)cc23)c(OC)c1 (centres undefined) | 110 to 129 °C
CCOC(=O)c1c(CC)nn2c(-c3cccc(C(F)(F)F)c3)ccnc12 | 142 to 143 °C
CCCCc1cn(CC(C)(C)C)c(=O)n1Cc1ccc(-c2ccccc2-c2nnn[nH]2)nc1 | 194 to 195 °C
CCOC(=O)c1cc(NS(=O)(=O)c2ccc(Cl)nc2)ccc1Oc1cncc(Cl)c1 | 166 to 168 °C
CC(C)(c1ccc2c(=O)c3ccccc3sc2c1)[N+](=O)[O-] | 131 to 133 °C
CS(=O)(=O)Nc1ccc(Sc2ccc([N+](=O)[O-])cc2)cc1Oc1ccc(F)cc1F | 124 to 127 °C
Cc1cc(N)c2nccc(Cl)c2c1 | 115 to 116 °C
c1cnc2cccn2c1 | 230 to 231 °C
CC(C)(C)NC(=O)[C@@H]1[C@@H](Cl)CCN1C(=O)[C@@H](O)[C@H](Cc1ccccc1)NC(=O)[C@H](CC(N)=O)NC(=O)OCc1ccccc1 | 102 to 104 °C
O=C(O)C=Cc1cccc2nnsc12 | 199 to 202 °C
COC1C=C(C)C(=O)CC(C)(C)C1OC(=O)c1ccccc1C(=O)O (centres undefined) | 158 °C
Clc1ccc2c(c1)c(-c1ccccc1)c1n2CCNC1 | 163 to 164 °C
CC(C)OC(=O)C(C(=O)O)=C1SCS1 | 123 to 124 °C
O=C(O)COc1cc2c(=O)c3ccccc3oc2cc1Cl | 237 to 238 °C
O=C(O)c1ccc(CCCOCCCCCCBr)s1 | 93 to 95 °C
CCOC(=O)c1cnc2n(c1=O)CCc1cc(OC)ccc1-2 | 158 to 160 °C
CSc1nc(NC(=O)NS(=O)(=O)c2ccccc2C(=O)OC(C)C)nn1C | 192 to 194 °C
CC(C)(C)c1ccnc(NC(=O)Nc2ccc(Oc3ccc(Cl)cc3)cc2)c1 | 198 to 199 °C

SMILES | melting point
COc1ccc(S(N)(=O)=O)cc1C(N)=O | 178 °C
CCOC(=O)c1cn2c3c(c(-c4ccccc4)c(F)cc3c1=O)OCC2C (centres undefined) | 270 to 272 °C
O=C(Nc1ccc2ccc(Cl)nc2n1)c1ccccc1F | 222 °C
CC(C)CSc1nc(N)nc2c1ncn2C1C=CC(CO)C1 (centres undefined) | 127 to 129 °C
Cn1cc(-c2ccccc2)c(=O)c(S(=O)(=O)c2ccccc2)c1 | 218 to 220 °C
CCCCCC(=O)Nc1ccc2ccn(CCCO)c2c1 | 87 to 88 °C
CCCOc1ccc(C(=O)CC(=O)C(C)(C)C)cc1OC | 55.5 to 56.7 °C
CCn1ncc2c(NC)c3c(nc21)C(=NC)c1ccccc1CC3 | 233 to 235 °C
CCSc1nc(-c2ccccc2)c(-c2ccccc2)s1 | 73 to 74 °C
CCOC(=O)c1c(N)sc(C#N)c1C | 200 to 202 °C
Cc1cc(-c2c3c(cc4ccc(O)cc24)-c2ccc(O)cc2CO3)ccc1F | 185 to 188 °C
Cc1c(CCCCCCCCCCCC(=O)O)cccc1C(=O)c1ccc(Cl)cc1 | 79 °C
CCCCC(CC)C(=O)Nc1ccc2ccn(Cc3ccc(C(=O)OC(=O)N(c4ccccc4)c4ccccc4)cc3OC)c2c1 (centres undefined) | 159 to 162 °C
Cc1ccc(-c2nc3ccccc3s2)nc1 | 170 °C
O=C(COc1ccc(Cl)cc1)CS(=O)(=O)C(c1ccc(Cl)cc1)c1ccc(Cl)cc1 | 105 to 107 °C
C=C(CC(=O)c1ccc(C)cc1)C(=O)O | 137 to 138 °C
O=C(CCn1ccnc1)c1ccc(Cl)cc1Cl | 105 to 109 °C
c1ccc(COc2ccc3c(ccn3Nc3ccncc3)c2)cc1 | 143 to 145 °C
Nc1cccc(-c2nc3n(n2)CCc2ccccc2-3)c1 | 118 to 119 °C
O=[N+]([O-])c1cn2c(n1)O[C@@H](CN1CCN(Cc3ccc(C(F)(F)F)cc3)CC1)C2 | 149 to 150 °C
CC(C)(C)c1ccc(C=NOCc2ccc(CC(=O)O)cc2)cc1 | 93.3 to 96.2 °C
Cc1nccc(N2CCC(C(=O)N3CCN(S(=O)(=O)c4ccc(Br)cc4)CC3)CC2)n1 | 200 to 202 °C
CC(=O)OCCNC(=O)Nc1ccc2c(c1)C(c1ccccc1F)=NCC(=O)N2C | 196 to 198 °C
COc1ccccc1OC1CCN(C(=O)Cl)C1 (centres undefined) | 80 to 81 °C
O=c1nc(-c2ccnc(OCc3ccccc3)c2)sc2ccccc12 | 116 °C

SMILES | melting point
Cc1cccc(C(=O)NNC(=O)c2ccccc2Cc2ccccc2)c1 | 149 to 150 °C
Oc1c(CCl)cc(Cl)cc1CCl | 88 °C
N#CC(Sc1nc2ccccc2[nH]1)c1ccccn1 (centres undefined) | 166 to 167 °C
CONc1nc(N)nc2c1ncn2[C@@H]1C[C@H](CO)[C@@H](O)[C@H]1O | 106 to 110 °C
CC(C)Cn1c(CNC(=O)OC(C)(C)C)c(-c2ccccc2)c2cc(-c3nc(N)cs3)ccc2c1=O | 195 to 196 °C
CCOC(=O)c1cc2ccoc2nc1C(=O)OCC | 66 to 77 °C
CC(C)(C)c1cc(NC(=O)NNC(=O)c2ccc(N)cc2)cc(C(C)(C)C)c1O | 245 to 246 °C
Cc1ccc(N2C(=O)c3ccccc3C2=O)c(O)c1 | 251 to 254 °C
CC(C)C(=O)Nc1nc(CN2CCN(C(c3ccccc3)c3ccccc3)CC2)cs1 | 132 to 140 °C
C[C@@]1(CBr)OC(=O)[C@H]2CCCN2C1=O | 107 to 109 °C
CN1CCN(c2cccc(Nc3cc(NC(=O)Nc4c(Cl)cc(Cl)cc4Cl)ncn3)c2)CC1 | 138 to 142 °C
COC(=O)CC1(CC(=O)N2CCN(C(=O)CC3=C(C(=O)OC)[C@H](c4c(Cl)cccc4Cl)C(C(=O)OC)=C(C[S@](=O)c4ccccc4)N3)CC2)CCCC1 | 100 to 104 °C
CCCN=C(N)Nc1ccnc(CCCCc2ncc(CC)c(O)n2)n1 | 140 to 142 °C
COC(=O)c1cc(-c2ccc(F)c(C)c2)nn(CC=Cc2ccccc2)c1=O | 95.9 to 96.7 °C
CON=Cc1cnnc2ccccc12 | 83 to 85 °C
NC(=O)[C@@H]1COCN1C(=O)CCl | 131 to 133 °C
O=C1c2ccccc2C(=O)N1C(=O)c1cc(Oc2ccc(C(F)(F)F)cc2Cl)ccc1[N+](=O)[O-] | 160 °C
C=C(C)C(=O)c1ccc2c(c1)oc(=O)n2C | 127 °C
Nc1nsnc1-c1c(Cl)cccc1Cl | 95 to 97 °C
C[C@@H]1S[C@@H](C(=O)Nc2ccc(CC3OC(=O)NC3=O)cc2)Cc2cc3c(cc2C1=O)OCO3 (some centres undefined) | 164 to 166 °C
COc1cc2ncnc(NC3=CC(=O)C(N(C)C)=CC3=O)c2cc1OC | 245 to 250 °C
O=C(Nc1ccc(C(=O)N2CCc3cn[nH]c3-c3ncccc32)cc1)c1ccccc1-c1ccccc1 | 250 to 251 °C
CC(=O)OCCN1CCN(C)c2cc(Nc3ncc(Cl)c(N[C@@H]4CCCC[C@H]4NS(C)(=O)=O)n3)ccc2C1 | 110 to 142 °C
COc1ccc(-c2cccc3c2C2(COc4cc5c(cc42)OCO5)C(=O)N3Cc2ccc(C(F)(F)F)o2)cn1 (centres undefined) | 174 to 176 °C
CC(=O)OC1CSC(Oc2cncc(-c3ccc(C)o3)c2)C(OC(C)=O)C1OC(C)=O (centres undefined) | 124 °C

SMILES | melting point
Cn1cc(C(=O)CCC(=O)O)nc1-c1ccccc1 | 191 to 192 °C
CC(O)=C(C#N)C(=O)Cc1ccc(Cl)cc1 | 50 to 53 °C
Cc1cc(-c2sc(N3CCN(Cc4ccc(C(=O)N5CCCCC5)cc4)C3=O)nc2C)[nH]n1 | 182 to 183 °C
O=C(O)C1=Cc2cc(S(=O)(=O)Cl)ccc2OC1C(F)(F)F (centres undefined) | 208 to 212 °C
CC(=O)c1cc(S(=O)(=O)c2cccc(F)c2)ccc1OC[C@@H]1CO1 | 113 to 115 °C
COc1ccc(Oc2ccc3ccc(N)nc3n2)cc1 | 200 °C
COc1ncc(Cl)c(C)c1C(=O)O | 127 to 129 °C
CCC(C)(C)C1=C(OC(C)=O)C(=O)c2ccccc2C1=O | 53 °C
CCOC(=O)C1=C(COCC(O)CCO)NC(C)=C(C(=O)OC)C1c1cccc(Cl)c1Cl (centres undefined) | 86 to 89 °C
COC(=O)CCCc1ccc(OCCN(C)c2nc3ccccc3o2)cc1 | 117 to 119 °C
CCCN1C(=O)N2CC(CC)N=C2c2c1ncn2C (centres undefined) | 124 to 126 °C
CC(C)(C)OC(=O)Cn1c(=O)n(Cc2ccccc2)c2ccccc21 | 99 to 100 °C
Cc1cc(-c2cc(C(F)(F)F)n3nccc3n2)ccc1Cl | 114 °C
N#Cc1coc2c(Cl)cc(Cl)cc2c1=O | 150 °C
C[C@@H]1CN(c2nccc(Oc3ccc(NC(=O)c4cc(F)cc(N5CCCCC5)c4)c4ccccc34)n2)C[C@H](C)O1 | 174 to 176 °C
O=C(O)COc1ccc(-c2ccc(-c3c(Cc4ccccc4)sc4ccccc34)cc2)cc1Br | 150 to 152 °C
Cc1cc(C#Cc2cn(-c3ccc(F)cc3)c(C)n2)ccn1 | 151 °C
CC1OCCN1CCNc1ccc(NCCN2CCOC2C)c2c1C(=O)c1c(O)ccc(O)c1C2=O (centres undefined) | 161 to 168 °C
CC1CN(c2ccc(N3CC(CNc4nccs4)OC3=O)cc2F)CCC1=CC#N (centres undefined) | 75 to 77 °C
O=C1CNc2ncc(I)cc2N1Cc1cc(F)c(F)cc1F | 227 to 228 °C
O=C(O)CS(=O)(=O)CCCCCCn1nc(-c2ccccc2)c(-c2ccccc2)c1-c1ccccc1 | 154 to 155 °C
CC1(C)OC(=C(C#N)C#N)C(C#N)=C1c1ccc(C#C[Si](C)(C)C)cc1 | 201 °C
CC1Cc2cc3c(cc2C(c2ccc([N+](=O)[O-])cc2)=NN1c1nncs1)OCO3 (centres undefined) | 212 to 213 °C
CCOC(=O)c1nc(-c2ccccc2)c(-c2ccc(=O)n(C(C)C)n2)s1 | 153 to 154 °C
